# According to patent US20250340561A1, “QUINAZOLINE COMPOUND FOR INDUCING DEGRADATION OF G12D MUTANT KRAS PROTEIN” (Astellas Pharma Inc., priority 2021, published 2025):
# pIC50: −log10 of the molar value. Read-outs that look alike come from different tables or passages of the source.
# What was measured:
# [1] = system: phosphorylation of ERK (Thr202/Tyr204); test: Test Example 2: ERK phosphorylation inhibition action in AsPC-1, Cell ELISA; type: cell-based, human; settings: AsPC-1 cells, 0% = 1 μM trametinib
# How it was run: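 AsPC-1 cells (KRAS G12D) treated 24 h with compound (6 points, 10 μM to 3.0 nM final) in RPMI 1640/10% FBS. Fixed with glyoxal; pERK Thr202/Tyr204 detected by In-Cell ELISA with 800 nm fluorescence. IC50 by Sigmoid-Emax regression, with DMSO set to 100% and 1 μM trametinib to 0%.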
# [2] = system: human G12D mutant KRAS-positive pancreatic cancer line AsPC-1; test: Test Example 3: non-anchorage-dependent cell growth inhibition, spheroid 3D cell culture; type: cell-based; settings: AsPC-1 spheroid 3D culture, 6 days, CellTiter Glo 2.0
# How it was run: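 AsPC-1 cells were grown as spheroids (5×10^2 cells/well, low-adhesion round-bottom plates). Next day they were treated with compound at 6 final concentrations from 10 μM to 3.0 nM for 6 days at 37 °C, and viability was read by CellTiter Glo luminescence. IC50 came from Sigmoid-Emax nonlinear regression, normalized between DMSO-treated and cell-free wells.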
# [3] = Homo sapiens, ASPC1, 24 h, read-out: IC50
# [4] = Homo sapiens, ASPC1, 144 h, read-out: IC50
"pIC50 [1, 3]","pIC50 [2, 4]",Compound,"pIC50 ([1]; Homo sapiens, ASPC1, 24 h)","pIC50 ([2]; Homo sapiens, ASPC1, 144 h)",further results
,,Cc1ncsc1-c1ccc([C@H](CO)NC(=O)[C@@H]2C[C@@H](O)CN2C(=O)[C@H](C(C)C)n2cc(-c3ccc(COc4c(-c5c(C)c(F)cc6[nH]ncc56)c(C5CC5)cc5c(N6C[C@@H]7C[C@H]6CN7)nc(OC[C@@H]6CCOC6)nc45)cc3)nn2)cc1 [Example 50],8.00,7.68,
,,Cc1ncsc1-c1ccc([C@H](CO)NC(=O)[C@@H]2C[C@@H](O)CN2C(=O)[C@H](C(C)C)n2cc(-c3ccc(COc4c(-c5c(C)c(F)cc6[nH]ncc56)c(C5CC5)cc5c(N6C[C@@H]7C[C@H]6CN7)nc(OC[C@H]6CCOC6)nc45)cc3)nn2)cc1 [Example 51],7.85,7.57,
,,Cc1ncsc1-c1ccc([C@H](CO)NC(=O)[C@@H]2C[C@@H](O)CN2C(=O)[C@H](C(C)C)n2cc(-c3ccc(COc4c(-c5c(C)c(F)cc6[nH]ncc56)c(C5CC5)cc5c(N6C[C@@H]7C[C@H]6CN7)nc(OC[C@H]6CCOC6)nc45)cc3)nn2)cc1 [Example 52],,,pIC50 ([1]; 24 hours): 7.96; pIC50 [2]: 7.51
,,Cc1ncsc1-c1ccc([C@H](CO)NC(=O)[C@@H]2C[C@@H](O)CN2C(=O)[C@H](C(C)C)n2cc(-c3ccc(COc4c(-c5c(C)c(F)cc6[nH]ncc56)c(C5CC5)cc5c(N6C[C@@H]7C[C@H]6CN7)nc(OC[C@@H]6CCOC6)nc45)cc3)nn2)cc1 [Example 53],,,pIC50 ([1]; 24 hours): 8.00; pIC50 [2]: 7.64
,,COC[C@H](C)Oc1nc(N2C[C@@H]3C[C@H]2CN3)c2cc(C3CC3)c(-c3c(C)c(F)cc4[nH]ncc34)c(OCc3ccc(-c4cn([C@H](C(=O)N5C[C@H](O)C[C@H]5C(=O)N[C@@H](CO)c5ccc(-c6scnc6C)cc5)C(C)C)nn4)cc3)c2n1 [Example 54],7.74,7.62,
7.42,7.12,COC[C@H](CN1CCOCC1)Oc1nc(N2C[C@@H]3C[C@H]2CN3)c2cc(C3CC3)c(-c3c(C)c(F)cc4[nH]ncc34)c(OCc3ccc(-c4cn([C@H](C(=O)N5C[C@H](O)C[C@H]5C(=O)N[C@@H](CO)c5ccc(-c6scnc6C)cc5)C(C)C)nn4)cc3)c2n1 [Example 55],,,
7.19,7.05,Cc1ncsc1-c1ccc([C@H](CO)NC(=O)[C@@H]2C[C@@H](O)CN2C(=O)[C@H](C(C)C)n2cc(-c3ccc(COc4c(-c5c(C)c(F)cc6[nH]ncc56)c(C5CC5)cc5c(N6C[C@@H]7C[C@H]6CN7)nc(OC[C@@H]6CCCN6C)nc45)cc3)nn2)cc1 [Example 57],,,
,,CO[C@@H](C)COc1nc(N2C[C@@H]3C[C@H]2CN3)c2cc(C3CC3)c(-c3c(C)c(F)cc4[nH]ncc34)c(OCc3ccc(-c4cn([C@H](C(=O)N5C[C@H](O)C[C@H]5C(=O)N[C@@H](CO)c5ccc(F)cc5)C(C)C)nn4)cc3)c2n1 [Example 58],7.60,7.10,
,,CO[C@@H](C)COc1nc(N2C[C@@H]3C[C@H]2CN3)c2cc(C3CC3)c(-c3c(C)c(F)cc4[nH]ncc34)c(OCc3ccc(-c4cn([C@H](C(=O)N5C[C@H](O)C[C@H]5C(=O)N[C@@H](CO)c5ccc(N6CCOC6=O)cc5)C(C)C)nn4)cc3)c2n1 [Example 59],7.59,7.15,
,,Cc1ncsc1-c1ccc([C@H](CO)NC(=O)[C@@H]2C[C@@H](O)CN2C(=O)[C@H](C(C)C)n2cc(-c3ccc(COc4c(-c5c(C)c(F)cc6[nH]ncc56)c(C5CC5)cc5c(N6C[C@@H]7C[C@H]6CN7)nc(OC[C@H]6CCCN6C)nc45)cc3)nn2)cc1 [Example 60],7.30,6.90,
,,Cc1ncsc1-c1ccc([C@H](CO)NC(=O)[C@@H]2C[C@@H](O)CN2C(=O)[C@H](C(C)C)n2cc(-c3ccc(COc4c(-c5c(C)c(F)cc6[nH]ncc56)c(C5CC5)cc5c(N6C[C@@H]7C[C@H]6CN7)nc(OCC6(CO)CC6)nc45)cc3)nn2)cc1 [Example 61],7.62,7.21,
,,COCC1(COc2nc(N3C[C@@H]4C[C@H]3CN4)c3cc(C4CC4)c(-c4c(C)c(F)cc5[nH]ncc45)c(OCc4ccc(-c5cn([C@H](C(=O)N6C[C@H](O)C[C@H]6C(=O)N[C@@H](CO)c6ccc(-c7scnc7C)cc6)C(C)C)nn5)cc4)c3n2)CC1 [Example 62],7.82,7.47,
,,Cc1c(F)cc2[nH]ncc2c1-c1c(C2CC2)cc2c(N3C[C@@H]4C[C@H]3CN4)nc(OC3CCOCC3)nc2c1OCc1ccc(-c2cn([C@H](C(=O)N3C[C@H](O)C[C@H]3C(=O)N[C@@H](CO)c3cccc(F)c3)C(C)C)nn2)cc1 [Example 63],7.14,6.88,
,,Cc1ncsc1-c1ccc([C@H](CO)NC(=O)[C@@H]2C[C@@H](O)CN2C(=O)[C@H](C(C)C)n2cc(-c3ccc(COc4c(-c5c(C)c(F)cc6[nH]ncc56)c(C5CC5)cc5c(N6C[C@@H]7C[C@H]6CN7)nc(OC[C@H](C)N6CCCC6)nc45)cc3)nn2)cc1 [Example 64],7.10,6.61,
,,Cc1ncsc1-c1ccc([C@H](CO)NC(=O)[C@@H]2C[C@@H](O)CN2C(=O)[C@H](C(C)C)n2cc(-c3ccc(COc4c(-c5c(C)c(F)cc6[nH]ncc56)c(C5CC5)cc5c(N6C[C@@H]7C[C@H]6CN7)nc(OC[C@H](C)N6CCOCC6)nc45)cc3)nn2)cc1 [Example 65],7.96,7.35,
6.94,6.44,Cc1ncsc1-c1ccc([C@H](CO)NC(=O)[C@@H]2C[C@@H](O)CN2C(=O)[C@H](C(C)C)n2cc(-c3ccc(COc4c(-c5c(C)c(F)cc6[nH]ncc56)c(C5CC5)cc5c(N6C[C@@H]7C[C@H]6CN7)nc(NCCO)nc45)cc3)nn2)cc1 [Example 66],,,
6.12,6.01,Cc1c(F)cc2[nH]ncc2c1-c1c(C2CC2)cc2c(N3C[C@@H]4C[C@H]3CN4)nc(OC3CCOCC3)nc2c1OCc1ccc(-c2cn([C@H](C(=O)N3C[C@H](O)C[C@H]3C(=O)N[C@@H](CO)c3cccc(S(C)(=O)=O)c3)C(C)C)nn2)cc1 [Example 67],,,
5.66,5.79,Cc1ncsc1-c1ccc([C@@H](CO)NC(=O)[C@@H]2C[C@@H](O)CN2C(=O)[C@H](C(C)C)n2cc(-c3ccc(COc4c(-c5c(C)c(F)cc6[nH]ncc56)c(C5CC5)cc5c(N6C[C@@H]7C[C@H]6CN7)nc(OC6CCOCC6)nc45)cc3)nn2)cc1 [Example 68],,,
7.77,7.19,Cc1c(F)cc2[nH]ncc2c1-c1c(C2CC2)cc2c(N3C[C@@H]4C[C@H]3CN4)nc(OC3CCOCC3)nc2c1OCc1ccc(-c2cn([C@H](C(=O)N3C[C@H](O)C[C@H]3C(=O)N[C@@H](CO)c3ccc(-n4ccnc4C)cc3)C(C)C)nn2)cc1 [Example 69],,,
7.92,7.68,CCn1nccc1-c1ccc([C@H](CO)NC(=O)[C@@H]2C[C@@H](O)CN2C(=O)[C@H](C(C)C)n2cc(-c3ccc(COc4c(-c5c(C)c(F)cc6[nH]ncc56)c(C5CC5)cc5c(N6C[C@@H]7C[C@H]6CN7)nc(OC[C@H](C)OC)nc45)cc3)nn2)cc1 [Example 70],,,
7.42,7.29,CO[C@@H](C)COc1nc(N2C[C@@H]3C[C@H]2CN3)c2cc(C3CC3)c(-c3c(C)c(F)cc4[nH]ncc34)c(OCc3ccc(-c4cn([C@H](C(=O)N5C[C@H](O)C[C@H]5C(=O)N[C@@H](CO)c5ccc(-n6ccnc6C)cc5)C(C)C)nn4)cc3)c2n1 [Example 71],,,
7.80,7.59,CO[C@@H](C)COc1nc(N2C[C@@H]3C[C@H]2CN3)c2cc(C3CC3)c(-c3c(C)c(F)cc4[nH]ncc34)c(OCc3ccc(-c4cn([C@H](C(=O)N5C[C@H](O)C[C@H]5C(=O)N[C@@H](CO)c5ccc(-c6ocnc6C)cc5)C(C)C)nn4)cc3)c2n1 [Example 72],,,
6.88,6.95,Cc1ncsc1-c1ccc([C@H](CO)NC(=O)[C@@H]2C[C@@H](O)CN2C(=O)[C@H](C2CC2)n2cc(-c3ccc(COc4c(-c5c(C)c(F)cc6[nH]ncc56)c(C5CC5)cc5c(N6C[C@@H]7C[C@H]6CN7)nc(OC6CCOCC6)nc45)cc3)nn2)cc1 [Example 73],,,
